From patent US20230002336A1, “MrgprX2 Antagonists and Uses Thereof” (Dermira, Inc., priority 2019, published 2023)

What follows are compounds tested against T1, Human MrgprX2 (Homo sapiens, UniProt Q96LB1) (assay: FLIPR intracellular calcium mobilization antagonist assay in recombinant hMrgpMRGPRX2 expressing cells). Settings: antagonist activity, read-out: Human MrgprX2 Antagonist pIC50 (converted).
T1 construct: expressed in transfected cells; host or cells: recombinant cells
T1 sequence (Q96LB1 1-330): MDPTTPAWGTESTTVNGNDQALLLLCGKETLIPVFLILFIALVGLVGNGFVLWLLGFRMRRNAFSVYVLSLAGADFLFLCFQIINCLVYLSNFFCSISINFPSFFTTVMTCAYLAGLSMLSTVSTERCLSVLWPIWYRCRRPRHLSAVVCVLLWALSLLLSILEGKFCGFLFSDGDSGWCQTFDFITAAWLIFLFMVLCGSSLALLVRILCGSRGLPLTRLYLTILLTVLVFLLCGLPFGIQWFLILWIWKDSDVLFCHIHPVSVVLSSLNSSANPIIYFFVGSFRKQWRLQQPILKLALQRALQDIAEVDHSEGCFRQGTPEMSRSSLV
Format: cell-based
Source text: [Worded in the source for another species; this species is reported under the same test.] The assays used to determine potencies are functional read-out looking at intracellular calcium mobilization using the FLIPR™ technology. In these FLIPR assays, we test the identified compounds using recombinant cellular systems expressing mouse MrgprB2, mouse MrgprA1, gerbil MrgpMRGPRX2 orthologue, Chinese hamster MrgpMRGPRX2 orthologue and cynomolgus monkey MrgpMRGPRX2 orthologue, respectively for orthologue activity.

Row | SMILES | IC50 [nM]
1 | CCN(C[C@H](C)O)C(=O)Nc1nnc(Cc2cc(F)cc(F)c2)s1 [Example E10] | 251
2 | O=C(Nc1nnc(Cc2cc(F)cc(F)c2)s1)N1CCC[C@@H]1CO [Example E16] | 2000
3 | CC(CO)N(C)C(=O)Nc1nnc(Cc2cc(F)cc(F)c2)s1 (stereo not drawn) [Example E17] | 3980
4 | O=C(Nc1nnc(Cc2cc(F)cc(F)c2)s1)N1CCCC1 [Example E25] | 7940
5 | CCN(C[C@H](C)O)C(=O)Nc1nnc(Cc2cc(Cl)ccc2F)s1 [Example E34] | 3980
6 | CCN(C[C@H](C)O)C(=O)Nc1nnc(Cc2cc(Cl)cc(Cl)c2)s1 [Example E32] | 158
7 | C[C@H](O)CN(C)C(=O)Nc1nnc(Cc2cc(F)cc(F)c2)s1 [Example E14] | 2510
8 | CN(CC1(O)CC1)C(=O)Nc1nnc(Cc2cc(F)cc(F)c2)s1 [Example E31] | 1260
9 | CCN(C[C@@H](O)C(F)(F)F)C(=O)Nc1nnc(Cc2cc(F)cc(F)c2)s1 [Example E23] | 7.94
10 | CC(C)C(=O)Nc1nnc(Cc2ccc(F)c(F)c2)s1 [Example E06] | 1580
11 | CCN(C[C@H](C)O)C(=O)Nc1nnc(Cc2cccc(F)c2)s1 [Example E11] | 3160
12 | CCN(C[C@H](C)O)C(=O)Nc1nnc(Cc2cc(F)cc(Cl)c2)s1 [Example E24] | 100
13 | CCN(C[C@@H](O)C(F)(F)F)C(=O)Nc1nnc(Cc2cccc(F)c2)s1 [Example E36] | 200
14 | CN(CC(C)(O)C(F)(F)F)C(=O)Nc1nnc(Cc2cc(F)cc(F)c2)s1 (stereo not drawn) [Example E33] | 15.8
15 | C[C@@H](O)CN(C)C(=O)Nc1nnc(Cc2cc(F)cc(F)c2)s1 [Example E15] | 3980
16 | CC(C)C(=O)Nc1nnc(Cc2cccc(F)c2F)s1 [Example E04] | 1260
17 | O=C(Nc1nnc(Cc2cc(F)cc(F)c2)s1)N1CC[C@H](O)C1 [Example E28] | 5010
18 | CN(CC(C)(C)O)C(=O)Nc1nnc(Cc2cc(F)cc(F)c2)s1 [Example E20] | 200

Row | SMILES | IC50 [nM]
19 | CCN(C[C@H](C)O)C(=O)Nc1nnc(Cc2ccc(F)c(F)c2)s1 [Example E13] | 2000
20 | CCN(C[C@H](C)O)C(=O)Nc1nnc(Cc2cccc(C)c2)s1 [Example E21] | 7940
21 | CCN(C[C@H](C)O)C(=O)Nc1nnc(Cc2cc(C)cc(F)c2)s1 [Example E22] | 794
22 | CCN(C[C@H](C)O)C(=O)Nc1nnc(Cc2cc(F)ccc2F)s1 [Example E12] | 2000
23 | CC(C)C(=O)Nc1nnc(Cc2cccc(F)c2)s1 [Example E01, N-[5-[(3-fluorophenyl)methyl]-1,3,4-thiadiazol-2-yl]-2-methyl-propanamide] | 2510
24 | CN(CC1CCCO1)C(=O)Nc1nnc(Cc2cc(F)cc(F)c2)s1 (stereo not drawn) [Example E26] | 1260
25 | CCN(C[C@H](C)O)C(=O)Nc1nnc(Cc2ccc(F)c(Cl)c2)s1 [Example E35] | 794
26 | CCN(CC1(O)CC1)C(=O)Nc1nnc(Cc2cc(F)cc(F)c2)s1 [Example E30] | 79.4
27 | CC(C)C(=O)Nc1nnc(Cc2cc(F)cc(F)c2)s1 [Example E03] | 251
28 | O=C(Nc1nnc(Cc2cc(F)cc(F)c2)s1)N1CCC(C(F)(F)F)C1 (stereo not drawn) [Example E29] | 631
29 | CC(C)C(=O)Nc1nnc(Cc2cc(F)ccc2F)s1 [Example E05] | 2510
30 | CC(C)C(=O)Nc1nnc(Cc2ccc(F)cc2)s1 [Example E02] | 7940
31 | CCN(C[C@H](C)O)C(=O)Nc1nnc(Cc2cccc(F)c2F)s1 [Example E09, 3-[5-[(2,3-difluorophenyl)methyl]-1,3,4-thiadiazol-2-yl]-1-ethyl-1-[(2S)-2-hydroxypropyl]urea] | 1580
32 | CC1(C(=O)Nc2nnc(Cc3cc(F)cc(F)c3)s2)CCOCC1 [Example E07] | 1000
33 | CC1(C(=O)Nc2nnc(Cc3cc(F)cc(F)c3)s2)CCOC1 (stereo not drawn) [Example E08] | 2000
34 | CN(CC1CCOC1)C(=O)Nc1nnc(Cc2cc(F)cc(F)c2)s1 (stereo not drawn) [Example E27] | 6310
35 | CCN(C[C@@H](O)C(F)(F)F)C(=O)Nc1nnc(Cc2cccc(Cl)c2)s1 [Example E37] | 158

More lines, now with the values ahead:

Row | IC50 [nM] | SMILES
36 | 69.2 | CCN(C[C@@H](O)C(F)(F)F)C(=O)Nc1nnc(Cc2cc(C)cc(F)c2)s1 [Example E43]
37 | 10 | CN(C[C@@](C)(O)C(F)(F)F)C(=O)Nc1nnc(Cc2cc(F)cc(F)c2)s1 [Example E55]
38 | 724 | CCN(CC(C)(C)O)C(=O)Nc1nnc(Cc2cccc(F)c2)s1 [Example E39]
39 | 295 | CN(CC(C)(O)C(F)(F)F)C(=O)Nc1nnc(Cc2cccc(F)c2)s1 (single isomer, unassigned) [Example E50, 3-[5-[(3-fluorophenyl)methyl]-1,3,4-thiadiazol-2-yl]-1-methyl-1-(3,3,3-trifluoro-2-hydroxy-2-methyl-propyl)urea]
40 | 135 | CN(C[C@@H](O)C(F)(F)F)C(=O)Nc1nnc(Cc2cc(F)cc(Cl)c2)s1 [Example E47]
41 | 16.6 | CCN(CC(C)(C)O)C(=O)Nc1nnc(Cc2cc(F)cc(Cl)c2)s1 [Example E41]
42 | 14.1 | CCN(C[C@@H](O)C(F)(F)F)C(=O)Nc1nnc(Cc2cc(F)cc(Cl)c2)s1 [Example E48]
43 | 38 | CCN(C[C@@H](O)C(F)(F)F)C(=O)Nc1nnc(Cc2cc(Cl)cc(Cl)c2)s1 [Example E49]
44 | 10000 | CN(CC(C)(O)C(F)(F)F)C(=O)Nc1nnc(Cc2cccc(F)c2)s1 (single isomer, unassigned) [Example E51, 3-[5-[(3-fluorophenyl)methyl]-1,3,4-thiadiazol-2-yl]-1-methyl-1-(3,3,3-trifluoro-2-hydroxy-2-methyl-propyl)urea]
45 | 16.2 | CN(C[C@@](C)(O)C(F)(F)F)C(=O)Nc1nnc(Cc2cc(F)cc(Cl)c2)s1 [Example E56]
46 | 162 | CN(CC(C)(C)O)C(=O)Nc1nnc(Cc2cc(Cl)cc(Cl)c2)s1 [Example E44]
47 | 3160 | CC(C)NC(=O)c1nnc(Cc2cc(F)cc(F)c2)s1 [Example E58, 5-[(3,5-difluorophenyl)methyl]-N-isopropyl-1,3,4-thiadiazole-2-carboxamide]
48 | 47.9 | CCN(CC(C)(O)C(F)(F)F)C(=O)Nc1nnc(Cc2cccc(F)c2)s1 (stereo not drawn) [Example E42, 1-ethyl-3-[5-[(3-fluorophenyl)methyl]-1,3,4-thiadiazol-2-yl]-1-(3,3,3-trifluoro-2-hydroxy-2-methyl-propyl)urea]
49 | 85.1 | Cc1cc(F)cc(Cc2nnc(NC(=O)N(C)C[C@@](C)(O)C(F)(F)F)s2)c1 [Example E57]
50 | 316 | CN(CC(C)(O)C(F)(F)F)C(=O)Nc1nnc(Cc2cccc(F)c2)s1 (stereo not drawn) [Example E40, 3-[5-[(3-fluorophenyl)methyl]-1,3,4-thiadiazol-2-yl]-1-methyl-1-(3,3,3-trifluoro-2-hydroxy-2-methyl-propyl)urea]
51 | 288 | CN(C[C@@H](O)C(F)(F)F)C(=O)Nc1nnc(Cc2cc(Cl)cc(Cl)c2)s1 [Example E45]
52 | 50.1 | CCN(CC(C)(O)C(F)(F)F)C(=O)Nc1nnc(Cc2cccc(F)c2)s1 (single isomer, unassigned) [Example E52, 1-ethyl-3-[5-[(3-fluorophenyl)methyl]-1,3,4-thiadiazol-2-yl]-1-(3,3,3-trifluoro-2-hydroxy-2-methyl-propyl)urea]
53 | 2510 | CCN(C[C@H](C)O)C(=O)Nc1nnc(C(C)(C)c2cc(F)cc(F)c2)s1 [Example E59, 3-[5-[1-(3,5-difluorophenyl)-1-methyl-ethyl]-1,3,4-thiadiazol-2-yl]-1-ethyl-1-[(2S)-2-hydroxypropyl]urea]
54 | 3390 | CCN(CC(C)(O)C(F)(F)F)C(=O)Nc1nnc(Cc2cccc(F)c2)s1 (single isomer, unassigned) [Example E53, 1-ethyl-3-[5-[(3-fluorophenyl)methyl]-1,3,4-thiadiazol-2-yl]-1-(3,3,3-trifluoro-2-hydroxy-2-methyl-propyl)urea]
55 | 39.8 | CCN(CC(C)(C)O)C(=O)Nc1nnc(Cc2cc(F)cc(F)c2)s1 [Example E38]
56 | 372 | CCN(CC(C)(C)O)C(=O)Nc1nnc(Cc2cc(C)cc(F)c2)s1 [Example E46]
57 | 126 | CN(C[C@](C)(O)C(F)(F)F)C(=O)Nc1nnc(Cc2cc(F)cc(F)c2)s1 [Example E54, 3-[5-[(3,5-difluorophenyl)methyl]-1,3,4-thiadiazol-2-yl]-1-methyl-1-[(2S)-3,3,3-trifluoro-2-hydroxy-2-methyl-propyl]urea]
